Measurements taken from patent US20080220056A1, “Treatment for liver disease” (UNIVERSITY OF SOUTHAMPTON, priority 2002, published 2008).

Legend:
Type in all cases: cell-based
[1] = tested on: intracellular Ca2+ in rat hepatic stellate cells; experiment: Confocal microscopy of fluo-3 (intracellular calcium); conditions: 1.5 μmol/L gliotoxin
Description: (§1) Intracellular calcium concentrations were examined by preloading activated hepatic stellate cells seeded onto 35-mm diameter dishes with 2.5 μmol/L Fluo-3AM for two hours. Mitochondrial integrity was determined by coloading cells with […] TMRM and 1 μmol/M calcein-AM for three hours. After loading, the culture medium was removed and the cells were washed extensively with confocal buffer (145 mmol/L NaCl, 5 mml/L KCl, 1 mmol/L MgSO4, 1 mmol/L NaH2PO4, 10 mmol/L HEPES, 25 mmol/L glucose, 1 mmol/L CaCl2 and 2 mg/mL bovine serum albumin, pH 7.4) and incubated at 37° C. in 2 mL confocal buffer containing 1.5 μmol/L gliotoxin or DMSO vehicle control.
(§2) Fluo-3 and calcein fluorescence were excited at 488 nm and collected at 515-530 nm using a band width filter. TMRM was excited at 543 nm and collected at wavelengths greater than 570 nm.
MPT results in futile Ca^2+ cycling by mitochondria, which enhances the likelihood of cell death (Crompton et al., Biochem. J. (1999) 341: 233-249). The role of the MPT in the late events of gliotoxin apoptosis was also therefore assessed by measuring intracellular calcium levels. Culture-activated (14-day) rat hepatic stellate cells in six-well plates were loaded with fluo-3 and fluorescence imaged as outlined in the Materials and methods section after treatment with DMSO control or 1.5 μmol/L gliotoxin.

[2] = tested on: human hepatic stellate cells; experiment: DNA cleavage in human hepatic stellate cells (ladder, propidium iodide, TUNEL); conditions: human HSC, gliotoxin
Description: Hepatic stellate cells cultured in 35-mm diameter dishes (Greiner) were harvested, pelleted by centrifugation and DNA fragmentation determined as outlined elsewhere (Elsharkawy et al., Hepatology (1999) 30:761-769). Propidium Iodide Flow-Activated Cell Sorting Analysis Detached cells were pelleted by centrifugation, washed in PBS, and resuspended in HYPO buffer (0.1% wt/vol) Na3Citrate and 0.1% (wt/vol) Triton™ X-100 containing […] propidium iodide and incubated for 1 hour. The cells were then analyzed by fluorescence-activated cell sorter (FACS) with a Becton Dickinson (San Jose, Calif.) FACScan instrument using a 488 nm excitation wavelength with a band pass filter set at 530 nm. Attached cells were scraped in HYPO buffer after washing cells with PBS.
(§3) Rat and human hepatic stellate cells and rat liver tissue were fixed in 4% paraformaldehyde in PBS or 10% formalin in PBS, respectively, before being stained with Giemsa. DNA fragmentation was examined by labeling of 3′-OH DNA ends by the enzymatic addition of digoxygenin-labeled deoxyuridine triphosphate (dUTP) using terminal deoxynucleotidyl transferase using a kit from Boehringer essentially as described by the manufacturer. Rat liver tissue sections were pretreated with diethyl pyrocarbonate as described previously (Stahelin et al., J. Clin. Pathol. Mol. Pathol. (1998) 51:204-208) to reduce nonspecific reaction.

[3] = tested on: mitochondrial permeability transition in rat hepatic stellate cells; experiment: Confocal microscopy of calcein/TMRM (mitochondrial permeability transition); conditions: 1.5 μmol/L gliotoxin
Description: as §1
Fluorescence images were collected at 1 μm intervals using an Olympus BX50WI microscope fitted with the Biorad microradiance confocal scanning system.
as §2
Culture activated rat hepatic cells (14 day) were loaded with calcein (green fluorescence) and TMRM (red fluorescence) and then treated with either 0.05% (vol/vol) DMSO vehicle or alternatively 1.5 μmol/L gliotoxin. Green fluorescence and red fluorescence were imaged at regular time points as outlined in Materials and Methods and the results obtained were typical for at least three separate experiments.

[4] = tested on: rat hepatic stellate cells; experiment: Low molecular weight DNA fragmentation (nucleosomal ladder) in rat hepatic stellate cells; conditions: 37.5 μmol/L gliotoxin
[5] = tested on: NF-kB DNA binding activity; experiment: Electromobility shift assay for NF-kB DNA binding activity in rat hepatic stellate cells; conditions: activated rat HSC
Description: Crude high salt extractable nuclear protein was prepared from activated hepatic stellate cells for analysis of NF-kB DNA binding activity essentially as described (Elsharkawy et al., supra), aliquoted and stored at −80° C. until required. Extract protein concentrations were determined using the Lowry colorimetric assay (Lowry et al., supra) with bovine serum albumin as standard. A double stranded 5′ end labeled radiolabeled oligonucleotide [sense 5′-[…]-[…] (SEQ ID NO:1)] containing a consensus NF-kB DNA binding site as underlined (Baldwin et al., Annu. Rev. Immunol., (1996) 14:649-681) was used to determine NFkB DNA binding activity in crude nuclear extracts (Elsharkawy et al., supra).
The effect of gliotoxin on NF-kB activity in hepatic stellate cells was investigated. Culture-activated (14-day) rat hepatic stellate cells were incubated in the presence or absence of 10 ng/mL TNF-α fifteen minutes after addition of:
After a further 30 minutes, and before any significant morphologic changes, cells were washed with ice-cooled PBS, nuclear extracts prepared, and NF-kB DNA binding activity assessed by gel shift analysis. […] Each lane contained […] of protein and the results were the same for at least three separate experiments.

[6] = tested on: rat hepatic stellate cells; experiment: TUNEL staining of cultured rat hepatic stellate cells; conditions: 1.5 μmol/L gliotoxin, two hours
Text: as §3
DNA strand breaks were also characterized by TUNEL staining. Culture-activated (14-day) rat hepatic stellate cells were treated with 0.05% (vol/vol) DMSO or 1.5 μmol/L gliotoxin for two hours and DNA strand breaks examined by TUNEL staining as outlined in Materials and Methods.

CN1C(=O)[C@]23CC4=CC=C[C@H](O)[C@H]4N2C(=O)[C@@]1(CO)SS3 [gliotoxin]
intracellular Ca2+ levels [1]: do not rise until two hours of incubation | DNA cleavage by propidium iodide or TUNEL staining [2]: DNA cleavage was detected | cleavage of DNA to oligonucleosomal-length fragments [2]: did not cleave their DNA to oligonucleosomal-length fragments | TMRM fluorescence (mitochondrial permeability) [3]: loss of TMRM fluorescence at four hours | level of DNA cleavage at high concentration versus lower concentrations [4]: reduction in the level of DNA cleavage detected | TNF-α-inducible NF-kB DNA binding activity ([5]; 10 ng/mL TNF-α, same concentrations as for constitutive activity): inhibits TNF-α-inducible NF-kB DNA binding activity | constitutive NF-kB DNA binding activity ([5]; gliotoxin 1.5 μmol/L, N-acetyl cysteine 5 mM, calpain inhibitor 1 50 μM, dexamethasone 0.5 μm, pentoxyfilline 3.6 mM): does not have a marked inhibitory effect | TUNEL staining [6]: extensive TUNEL-positive staining
